System: patients >2 and <25 years with brain cancer
Experiment: Phase I/II trial of single agent mirdametinib in children, adolescents and young adults with brain cancer
Format: in vivo, human
Procedure: Example 1: Phase I/II Evaluation of Single Agent Mirdametinib, a Brain-Penetrant MEK1/2 Inhibitor, for the Treatment of Children, Adolescents, and Young Adults with Brain Cancer A multi-arm phase I/II trial of mirdametinib is to be conducted in patients>2 and <25 years with brain cancer. Phase I requires participants have no prior exposure to MEK inhibitors and recurrent/progressive disease with biopsy-proven evidence of MAPK pathway activation. Three escalating dose levels (2 mg/m^2/dose BID, 2.5 mg/m^2/dose BID and 3 mg/m^2/dose BID) are planned using a rolling 6 design. The median age enrolled in the study is 10 years old (3-21).

Structure (SMILES): O=C(NOC[C@H](O)CO)c1ccc(F)c(F)c1Nc1ccc(I)cc1F (single isomer, unassigned) [mirdametinib]
- dose-limiting toxicities (all three dose levels (2, 2.5 and 3 mg/m^2/dose BID), rolling 6 design, patients with brain cancer, median age 10 years): No dose-limiting toxicities
- clinical activity (overall assessment) (dosed continuously in patients with brain cancer): clinically promising
